Experimental findings from ChEMBL document CHEMBL5223175, “Discovery of novel 2-oximino-2-indolylacetamide derivatives as potent anticancer agents capable of inducing cell autophagy and ferroptosis” (Bioorg Med Chem, 2023) are described below.

Data set [1] relates to 5-8F. In words: Antiproliferative activity against human 5-8F cells assessed as cell viability at 80 uM incubated for 72 hrs by CCK-8 assay. Type of data set: functional. Conditions: read-out: Activity. In general terms: Tetrazolium dyes change colour on reduction, which living cells bring about.
In another data set the test system is HeLa. The data set is described as follows: Antiproliferative activity against human HeLa cells assessed as cell viability at 80 uM incubated for 72 hrs by CCK-8 assay. The class given is functional. Particulars: read-out: Activity.
Another data set concerns SK-HEP1. In words: Antiproliferative activity against human SK-HEP1 cells assessed as cell viability at 80 uM incubated for 72 hrs by CCK-8 assay. Type of data set: functional. Particulars: read-out: Activity.
Data set [2] in a line: Toxicity in BALB/c mouse xenografted with human 5-8F cells assessed as decrease in body weight at 2 mg/kg, ip administered every 2 days. The class given is organism-based. Particulars: in vivo, 48 h, time 2 day. On the technique in general: In xenograft studies the graft and the host belong to different species.
A short description of data set [3]: Antiproliferative activity against human NP69SV40T cells assessed as reduction in cell viability incubated for 72 hrs by CCK-8 assay. The class given is toxicity, cell-based.
Another data set deals with CAL-27. In words: Antiproliferative activity against human CAL-27 cells assessed as reduction in cell viability incubated for 72 hrs by CCK-8 assay. Conditions: CAL-27, 72 h. The class given is functional, cell-based.
The next data set deals with FaDu. In words: Antiproliferative activity against human FaDu cells assessed as reduction in cell viability incubated for 72 hrs by CCK-8 assay. Type of data set: functional, cell-based.
The test system of data set [4] is 5-8F. In words: Antiproliferative activity against human 5-8F cells assessed as reduction in cell viability incubated for 72 hrs by CCK-8 assay. Type of data set: functional, cell-based.

Turning to `Cc1ccccc1NC(=O)/C(=N/O)c1cn(C)c2ccccc12`, the viability at 80 µM with 5-8F [1] came out at 95.3%; with HeLa, 77.1%; in the data set on SK-HEP1, 76.8%.

Regarding `Cn1cc(/C(=N/O)C(=O)Nc2ccc(C(F)(F)F)cc2)c2ccccc21`, the figures for the viability at 80 µM with 5-8F [1], in the data set on HeLa and in the data set with SK-HEP1 were 45%, 25.7% and 51.5%, respectively.

In the case of `Cn1cc(/C(=N/O)C(=O)Nc2ccc(Br)cc2)c2ccccc21`, the viability at 80 µM with 5-8F [1] came to 31.5%; with HeLa, 18.4%; in the data set with SK-HEP1 it was 29.1%.

Consider `Cn1cc(/C(=N\O)C(=O)Nc2cccc(Cl)c2)c2ccccc21`, for which the viability at 80 µM in the data set with 5-8F [1] turned out to be 12.7%; in the data set on HeLa, 14%; in the data set on SK-HEP1 it was 31.4%.

As to `Cn1cc(/C(=N/O)C(=O)Nc2cccc(F)c2)c2ccccc21`, the values for the viability at 80 µM in the data set with 5-8F [1], in the data set with HeLa and with SK-HEP1 were 73.1%, 61.2% and 68%, respectively.

Take `Cn1cc(/C(=N/O)C(=O)Nc2ccc(Br)c(F)c2)c2ccccc21`: the viability at 80 µM in the data set with 5-8F [1] came to 75%; in the data set with HeLa it was 71.2%; in the data set with SK-HEP1, 60.6%.

As to `Cn1cc(/C(=N\O)C(=O)Nc2cccc(F)c2)c2ccccc21`, the viability at 80 µM in the data set on 5-8F [1] was 59.3%; in the data set with HeLa, 53.2%; in the data set on SK-HEP1, 40%.

For `Cn1cc(/C(=N/O)C(=O)Nc2ccc(Cl)cc2)c2ccccc21`, the viability at 80 µM came out at 47.2% in the data set on 5-8F [1], 57.2% in the data set on HeLa and 71.6% with SK-HEP1.

Regarding `Cc1ccccc1NC(=O)/C(=N\O)c1cn(C)c2ccccc12`, the viability at 80 µM in the data set on 5-8F [1] stood at 92.8%; in the data set with HeLa, 86.3%; with SK-HEP1, 77.6%.

As usually defined, the IC50 is the concentration at which inhibition is half-maximal. Regarding `COc1cccc2c1C(=O)c1c(O)c3c(c(O)c1C2=O)C[C@@](O)(C(=O)CO)C[C@@H]3O[C@H]1C[C@H](N)[C@H](O)[C@H](C)O1` [DOXORUBICIN], the Activity entry in data set [2] is on record as “Toxic”. In addition, in data set [3], the IC50 at 72 h stood at 110 nM. Moreover, the figures for the 50% inhibitory concentration (IC50) with CAL-27, in the data set on FaDu and in the data set with 5-8F [4] were 180 nM, 160 nM and 340 nM, respectively.

As to `Cn1cc(/C(=N/O)C(=O)Nc2cccc(Cl)c2)c2ccccc21`, the viability at 80 µM in the data set with 5-8F [1] came out at 78%; in the data set on HeLa, 64.6%; in the data set on SK-HEP1 it was 64.6%.

With `Cn1cc(/C(=N\O)C(=O)Nc2ccc(Br)c(F)c2)c2ccccc21`, the viability at 80 µM with 5-8F [1] turned out to be 86.8%; in the data set with HeLa it was 56.7%; with SK-HEP1, 75.6%.

`Cn1cc(/C(=N\O)C(=O)Nc2ccc(C(F)(F)F)cc2)c2ccccc21`: the viability at 80 µM is 10.2% in the data set on 5-8F [1], 15.8% in the data set with HeLa and 15% with SK-HEP1.

With `Cn1cc(/C(=N\O)C(=O)Nc2ccc(Br)cc2)c2ccccc21`, the viability at 80 µM stood at 22.1% in the data set on 5-8F [1], 14.8% with HeLa and 28.9% with SK-HEP1.
